Results reported in patent publication US11938177B2, “Peptide vaccine formulations and use thereof for inducing an immune response” (The United States of America, as represented by the …, priority 2016, dated 2024).
Square brackets hold non-standard residues; d marks the D form. Ends that are not written are not given here. Peptide text beside a SMILES is read from it. Lys(N3) = [N-]=[N+]=NCCCC[C@H](N)C(=O)O

What was measured:
[1] = Solubility of synthetic long peptides in aqueous buffer (PBS pH 7.4, bright field microscopy); assay type: physicochemical
Procedure: FIGS. 2A-2E: Impact of adjuvant and the composition of amino acids flanking minimal epitopes on CD8 T cell responses induced by synthetic long peptide vaccines. (2A and 2B) Synthetic long peptides delivering the minimal CTL epitope from Ovalbumin (OVA257-264: SIINFEKL, SEQ ID NO: 1) were prepared with either hydrophobic or hydrophilic flanking sequences to provide insoluble (LSI, 1) or soluble (LSS, 3) peptides alone or linked to a TLR-7/8a through a C-terminal azide to yield a LSI-7/8a (2) and LSS-7/8a (4). Bright field microscopy images are shown of […] at 0.1 mg/mL in PBS at pH 7.4. (2C) The TLR-7/8a adjuvant was delivered as either a small molecule (7/8a, 5) or as a particle (PP-7/8a, 6) with the peptide antigens. (2D and 2E) Long peptides (4 nmol) alone or admixed with or covalently attached to adjuvant (4 nmol) were subcutaneously administered into the hind footpads of mice at days 0 and 14. At day 28, tetramer+ CD8 T cell responses were evaluated from whole blood of mice (n=5-25).
FIGS. 4A-4G: Influence of neoantigen flanking sequences on long peptide morphology and CD8 T cell immunity. (4A) The sequences flanking two minimal CD8 T cell neoantigen epitopes, Reps1 (7) and Irgq (9), derived from murine MC38 […] were exchanged to create two chimeric synthetic long peptides, Reps1 FS (8) and Irgq FS (10). Bright field microscopy images are shown for peptides 7-10 at 0.1 mg/mL in PBS at pH 7.4. (4B-4G) The synthetic long peptide-based neoantigens (7-10) (4 nmol) were admixed with adjuvant (4 nmol) and subcutaneously administered into the hind footpads of C57BL/6 mice at days 0 and 14 and on day 28 whole blood was assessed for the percent of total CD8 T cells that were dextramer^+ for Reps1 (4B) and Irgq (4C); the percent of total CD8 T cells that were IFNγ following stimulation with either Reps1 (4D) or Irgq (4E); or, the percent of total CD4 T cells that were IFNγ following stimulation with either Reps1 (4F) or Irgq (4G). Data on log scale are reported as geometric mean with 95% confidence interval (CI). Data are representative of two or more independent experiments. Student's T test was used for comparison of 2 groups; ns, not significant (P>0.05); *, P<0.05; **, P<0.01.
Soluble: Capable of becoming molecularly or ionically dispersed in a solvent to form a homogeneous solution. […] Solubility can be determined visually or using spectroscopic techniques. Turbidity measurements allow for solubility determination indirectly by using a spectrophotometer to measure absorbance in the visible spectrum, typically between 300-500 nm; insoluble materials scatter light that reduces transmittance, leading to increases in measured absorbance (OD). Herein, absorbance measurements at 490 nm were used to assess solubility. […]

[2] = side chain group (epsilon amine; gamma carboxylic acid); cited from earlier work

Compound	solubility in aqueous buffers [1]	pKa [2]
CC[C@H](C)[C@H](NC(=O)[C@@H](NC(=O)[C@@H](N)CO)[C@@H](C)CC)C(=O)N[C@@H](CC(N)=O)C(=O)N[C@@H](Cc1ccccc1)C(=O)N[C@@H](CCC(=O)O)C(=O)N[C@@H](CCCCN)C(=O)N[C@@H](CC(C)C)C(=O)N[C@H](C(=O)N[C@@H](Cc1ccccc1)C(=O)N1CCC[C@H]1C(=O)N[C@@H](CCCNC(=N)N)C(=O)N[C@@H](CO)C(=O)N1CCC[C@H]1C(=O)N[C@H](C(=O)N[C@H](C(=O)N[C@@H](Cc1ccccc1)C(=O)N[C@@H](Cc1ccc(O)cc1)C(=O)N[C@@H](CC(N)=O)C(=O)N[C@H](C(=O)N1CCC[C@H]1C(=O)N1CCC[C@H]1C(=O)N[C@@H](CCSC)C(=O)N1CCC[C@H]1C(=O)N[C@@H](CC(C)C)C(=O)N1CCC[C@H]1C(=O)N1CCC[C@H]1C(=O)N[C@@H](CO)C(=O)N[C@@H](CCC(N)=O)C(=O)N[C@@H](CC(C)C)C(=O)N[C@@H](CCCCN=[N+]=[N-])C(=O)O)[C@@H](C)CC)C(C)C)[C@@H](C)O)C(C)C [LSI]	insoluble	
CC[C@H](C)[C@H](NC(=O)[C@@H](NC(=O)[C@@H](N)CO)[C@@H](C)CC)C(=O)N[C@@H](CC(N)=O)C(=O)N[C@@H](Cc1ccccc1)C(=O)N[C@@H](CCC(=O)O)C(=O)N[C@@H](CCCCN)C(=O)N[C@@H](CC(C)C)C(=O)N[C@H](C(=O)N[C@@H](CCCCN)C(=O)N1CCC[C@H]1C(=O)N[C@@H](CCCNC(=N)N)C(=O)N[C@@H](CO)C(=O)N1CCC[C@H]1C(=O)N[C@H](C(=O)N[C@@H](CCCNC(=N)N)C(=O)N[C@@H](Cc1ccccc1)C(=O)N[C@@H](CC(=O)O)C(=O)N[C@@H](CC(N)=O)C(=O)N[C@@H](CO)C(=O)N[C@@H](CCCCN)C(=O)N1CCC[C@H]1C(=O)N[C@@H](CO)C(=O)N1CCC[C@H]1C(=O)N[C@@H](CCC(=O)O)C(=O)N1CCC[C@H]1C(=O)N[C@@H](CCCCN)C(=O)N[C@@H](CO)C(=O)N[C@@H](CCC(N)=O)C(=O)N[C@@H](CC(=O)O)C(=O)N[C@@H](CCCCN=[N+]=[N-])C(=O)O)[C@@H](C)O)C(C)C [LSS] (H-SIINFEKLVKPRSPTRFDNSKPSPEPKSQD[Lys(N3)]-OH)	soluble	
NCCCC[C@H](N)C(=O)O [Lysine]		~10.7
GRVLELFRAAALLNSAVLQIMELCGATR [Irgq FS]	assembled into an aggregate	
KARDETAQLANDVVLGAAPLFVPPAD [Reps1 FS]	water-soluble	
